# Measurements from patent US5041451A, “Tetrahydroisoquinoline and tetrahydrothieno derivatives” (Dr. Lo. Zambelletti SpA, priority 1988, dated 1991).
# Structures can show the parent of a compound that is named as a salt.
# Columns and labels:
# [1] = test system: mice (tail-flick, heat source reaction time); assay: Mouse tail-flick test; type: in vivo, mouse (male Charles River); conditions: sc, 0.5 h, s.c., 30 min after dosing, percent number of mice doubling the initial time, data given for free base form, read-out: ANALGESIA MOUSE TAIL-FLICK ED50
# Protocol: Mouse Tail-flick test (Modified from the procedure published by D Amour et al., J. Pharm. Exptl. Ther.72, 74/1941).
# Male Charles River mice, average weight 26g, are used. Selection is carried out before beginning of experiments: only mice whose reaction time is less than 8 sec are used. They are randomly distributed into groups of 10 and dosed with compounds under test, with positive and negative controls being included.
# Compounds under test are administered subcutaneously in isotonic saline in a volume of 20 ml. Kg^-1. 30 min later mice are placed again under heat source (Socrel apparatus) and reaction time is recorded.
# The analgesic activity of the test compound is expressed as the percent number of mice doubling the initial time within a group. [formula]
# [2] = test system: mice (p-phenylquinone-induced abdominal writhing); assay: P-phenylquinone-induced abdominal writhing test in mice; type: in vivo, mouse (male Charles River, Swiss Strain); conditions: Mus musculus, sc, 20 min; s.c., 20 min pretreatment; p-phenylquinone 2 mg/Kg i.p.; 8 min observation; data given for free base form; read-out: ANALGESIA MOUSE WRITHING ED50
# Protocol: P-phenylquinone-induced Abdominal Writhinq Test in Mice
# The methodology employed is based on that described by Sigmund et al, Proc. Soc. Exptl. Biol. 95, 729/1957, modified by Milne and Twomey, Agents and Actions, 10, 31/1980.
# Male Charles River mice (Swiss Strain), 25-36 g body weight, are used. Animals are allowed food and water ad libitum and are randomized into groups of 10 prior to experimentation. Test compounds are dissolved in either distilled water or distilled water plus 0.1 M AMS, and administered by the subcutaneous route in a final volume of 10 ml/Kg. Control animals receive 10 ml/Kg of the appropriate vehicle alone. Following a pretreatment period of 20 min., mice are injected intraperitoneally with p-phenylquinone, 2 mg/Kg at 37° C. in a final volume of 10 mg/Kg. Next, the mice are placed, in a groups of 3, in a compartmented perspex box maintained at room temperature and are observed for a period of 8 min. During this period the number of abdominal writhing responses per animal are recorded where writhing consists of an intermittent contraction of the abdomen associated with hind leg extension.
# The degree of antinociceptive protection afforded by the test compound is determined as the mean number of writhing responses observed in the treated group (T) expressed as a percentage of the mean number of writhing responses in the control group (C) according to the following formula:
# [1-(T/C)]×100%=% graded protection.
compound,measurement,setting,value
"O=C1CCCc2cc(CC(=O)N3CCc4ccccc4C3CN3CCCC3)ccc21 (stereo not shown) [Example 1, 1-(pyrrolidin-1-yl)methyl-2-(1-oxo-3,4-dihydro-(2H)-napht-6-Yl)acetyl-1,2,3,4-tetrahydroisoquinoline hydrochloride]",ED50,[1],0.114 mg/kg
same,ED50,[2],0.036 mg/kg
"O=C1CCCc2cc(CC(=O)N3CCc4ccccc4C3CN3CCCCC3)ccc21 (stereo not shown) [Example 2, 1-(piperidin-1-yl)methyl-2-(1-oxo-3,4-dihydro-(2H)-napht-6-yl)acetyl-1,2,3,4-tetrahydroisoquinoline hydrochloride]",ED50,[1],0.206 mg/kg
same,ED50,[2],0.038 mg/kg
"O=C1CCCc2cc(CC(=O)N3CCc4sccc4C3CN3CCCCC3)ccc21 (single isomer, unassigned) [Example 5, (-)4-(piperidin-1-yl)methyl-5-(1-oxo-3,4-dihydro-(2H)-napht-6-yl)acetyl-4,5,6,7-tetrahydrothieno [3,2-c]pyridine L(+) tartrate]",ED50,[1],0.045 mg/kg
same,ED50,[2],0.009 mg/kg
"O=C1CCCc2cc(CC(=O)N3CCc4sccc4C3CN3CCCCC3)ccc21 (stereo not shown) [Example 4, 4-(piperidin-1-yl)methyl-5-(1-oxo-3,4-dihydro-(2H)-napht-6-Yl)acetyl-4,5,6,7-tetrahydrothieno [3,2-c]pyridine hydrochloride hemihydrate]",ED50,[1],0.174 mg/kg
same,ED50,[2],0.017 mg/kg
"O=C1CCCc2cc(CC(=O)N3CCc4sccc4C3CN3CCCC3)ccc21 (stereo not shown) [Example 3, 4-(pyrrolidin-1-yl)methyl-5-(1-oxo-3,4-dihydro-(2H)-napht-6-yl)acetyl-4,5,6,7-tetrahydrothieno [3,2-c] pyridine hydrochloride]",ED50,[1],0.086 mg/kg
same,ED50,[2],0.023 mg/kg
